How the values were obtained:
OR51E2 [1] = test: CPM after ^11C-acetate treatment of OR51E2 knockout mice; type: in vivo, mouse; settings: OR51E2 knockout mice compared with wild-type mice (FIG. 8D)
MZ-CRC-1 cell line [2] = test: serum calcitonin in nude mice with MZ-CRC-1 tumor after ^11C-acetate; type: in vivo, mouse; settings: nude mice (BALB/c) with tumor from MZ-CRC-1 cell line (FIG. 11B)
Protocol: (§1) Nude mice (BALB/c) were administered with the MZ-CRC-1 cell line (4×10^6 cells/mouse) to induce tumorigenesis, and administered with ^11C-acetate, followed by performing positron emission tomography (PET).

MZ-CRC-1 cell line [3] = test: positron emission tomography (PET) of nude mice with MZ-CRC-1 tumor; type: in vivo, mouse; settings: nude mice (BALB/c) with tumor from MZ-CRC-1 cell line (FIG. 11A)
Protocol: as §1

OR51E2 [4] = target: T1, OR51E2 (Homo sapiens, UniProt Q9H255); test: ^11C-acetate positron emission and CPM in thyroid cancer cell lines; type: cell-based; parameters: OR51E1 (olfactory receptor 51E1) and OR51E2 were highly expressed in MZ-CRC1 and TT cell lines as medullary thyroid cancer cell lines; endogenous in cells; host or cells: MZ-CRC-1 and TT medullary thyroid cancer cell lines
T1 sequence (Q9H255 1-320): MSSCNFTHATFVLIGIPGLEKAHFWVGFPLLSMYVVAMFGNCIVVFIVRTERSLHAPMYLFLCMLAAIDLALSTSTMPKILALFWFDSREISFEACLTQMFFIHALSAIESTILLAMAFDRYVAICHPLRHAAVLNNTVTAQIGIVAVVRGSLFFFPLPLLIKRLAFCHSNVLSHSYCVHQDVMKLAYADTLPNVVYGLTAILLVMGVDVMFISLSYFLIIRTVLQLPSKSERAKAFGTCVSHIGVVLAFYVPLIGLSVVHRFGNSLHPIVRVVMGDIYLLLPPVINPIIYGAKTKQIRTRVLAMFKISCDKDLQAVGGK
Protocol: Thyroid cancer cell lines having different origins were treated with ^11C-acetate labeled with a radioactive isotope (20 μCi), and the degree of positron emission was identified. A control group was treated with F-18-fluorodeoxyglucose as the most commonly used radiopharmaceutical.

OR51E2 [5] = target: T1, OR51E2; test: acetate binding competition experiment (CPM); parameters: OR51E1 (olfactory receptor 51E1) and OR51E2 were highly expressed in MZ-CRC1 and TT cell lines as medullary thyroid cancer cell lines; endogenous in cells; host or cells: MZ-CRC-1 and TT medullary thyroid cancer cell lines; settings: MZ-CRC-1 and TT cell lines
Protocol: MZ-CRC-1 and TT cell lines as medullary thyroid cancer cell lines were treated with 100 μM cold acetate (acetate labeled with no radioactive isotope), and then treated with ^11C-acetate at concentrations of 2, 5, 10, 20, 40 and 60 μCi to measure CPM. In addition, MZ-CRC-1 and TT cell lines were treated with ^11C-acetate (20 μCi), and then treated with cold acetate at concentrations of 0, 20, 40, 80, 150 and 300 μM to measure CPM.

OR51E2 [6] = target: OR51E2 (Mus musculus, UniProt Q8VBV9); settings: wild-type mice, 30 minutes after injecting 100 μl of 99% acetate (FIG. 7B)
Sequence of OR51E2 (Mus musculus, UniProt Q8VBV9) (Q8VBV9 whole entry): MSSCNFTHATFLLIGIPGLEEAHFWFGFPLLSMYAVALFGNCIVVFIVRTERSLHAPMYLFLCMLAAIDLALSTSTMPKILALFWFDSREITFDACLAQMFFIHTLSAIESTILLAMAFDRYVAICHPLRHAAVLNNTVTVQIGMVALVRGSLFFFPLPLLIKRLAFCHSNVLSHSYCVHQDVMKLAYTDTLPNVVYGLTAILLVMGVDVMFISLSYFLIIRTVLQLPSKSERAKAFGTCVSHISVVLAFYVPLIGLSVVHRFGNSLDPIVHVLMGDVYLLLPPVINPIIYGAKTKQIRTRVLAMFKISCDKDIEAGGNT
Protocol: (§2) C57/BL6 mice in which a green fluorescent protein (GFP) was inserted into the OR51E2 gene loci were purchased (Jackson Laboratory, USA) and reared under sterile conditions. Through a week of acclimatization, the mice were each sacrificed 30 minutes after injecting 100 μl of 99% acetate thereto to separate the thyroid gland and serum. The thyroid gland was stained with calcitonin and a GFP antibody, respectively, and the calcitonin concentration was measured in the separated serum.

OR51E2 [7] = settings: OR51E2 knockout mice, 30 minutes after injecting 100 μl of 99% acetate (FIG. 7B)
Protocol: as §2

OR51E2 [8] = target: T1, OR51E2; settings: MZ-CRC-1 cell line, 100 μM acetate, stained after 1, 5 and 30 minutes (FIG. 10)
Protocol: To identify whether the binding of acetate and OR51E2 can be utilized in the diagnosis of thyroid cancer, the MZ-CRC-1 cell line (parafollicular C-cells) was treated with 100 μM of acetate, and the cells were stained after 1, 5 and 30 minutes to identify OR51E2.

parafollicular C-cells = parafollicular C-cells treated with acetate at each concentration (FIG. 5A)
Protocol: (§3) Thereafter, the parafollicular C-cells were treated with acetate at each concentration and cultured, and then using a bromodeoxyuridine (BrdU) cell proliferation assay kit (Millipore, Mass.), the degree of BrdU binding was analyzed according to the manufacturer's protocol.

OR51E2 [9] = target: T1, OR51E2
Protocol: as §3

intracellular cAMP = settings: parafollicular C-cell line, acetate treatment (FIG. 4C)
Protocol: (§4) Since OR51E1 and OR51E2 were highly expressed in the medullary thyroid cancer cell lines, MZ-CRC1 and TT cell lines as parafollicular C-cell lines were treated with acetate, nonanoic acid, propionate and azelaic acid as olfactory receptor ligands by 100 μM each to identify their influences.

[10] = tested on: CREB (cAMP response element-binding protein); settings: parafollicular C-cell line, acetate concentration series (FIG. 4B)
Protocol: as §4

p42/44 MAPK = tested on: p42/44 MAPK
Protocol: as §4

| SMILES | CPM (OR51E2 [1]) | calcitonin concentration in the serum (MZ-CRC-1 cell line [2]) | PET tracer accumulation (MZ-CRC-1 cell line [3]) | level of positron emission (OR51E2 [4]; medullary thyroid cancer cell line versus other thyroid cancer cell lines, 20 μCi (FIG. 8A)) | CPM (counter per minute) (OR51E2 [4]; medullary thyroid cancer cell line versus other thyroid cancer cell lines, 20 μCi (FIG. 8B)) | CPM (OR51E2 [4]; medullary thyroid cancer cell line with OR51E2 expression suppressed by siOR51E2 (FIG. 8C)) | CPM (OR51E2 [5]; first 100 μM cold acetate, then ^11C-acetate 2, 5, 10, 20, 40 and 60 μCi (FIG. 9A, 9B)) | level of calcitonin in the serum (OR51E2 [6]) | level of calcitonin in the serum (OR51E2 [7]) | location of OR51E2 (staining) (OR51E2 [8]) | cell proliferation (BrdU binding level) (parafollicular C-cells) | release of calcitonin (OR51E2 [9]; expression of OR51E2 suppressed with siRNA, then acetate treatment (FIG. 5C)) | intracellular expression level of calcitonin (OR51E2 [9]; parafollicular C-cell line, acetate treatment (FIG. 5B)) | level of intracellular cAMP (intracellular cAMP) | phosphorylation level of CREB versus concentration [10] | level of phosphorylation of p42/44 MAPK (p42/44 MAPK; MZ-CRC1 and TT cell lines, ligands 100 μM each (FIG. 4A)) | phosphorylation level of p42/44 MAPK versus concentration (p42/44 MAPK; parafollicular C-cell line, acetate concentration series (FIG. 4B)) | CPM (OR51E2 [5]; first ^11C-acetate 20 μCi, then cold acetate 0, 20, 40, 80, 150 and 300 μM (FIG. 9C, 9D)) |
| --- | --- | --- | --- | --- | --- | --- | --- | --- | --- | --- | --- | --- | --- | --- | --- | --- | --- | --- |
| C[11C](=O)O [^11C-acetate] | did not increase | increased | accumulated in the tumor-producing sites | high | highest | did not increase | increased as the treatment concentration increased |  |  |  |  |  |  |  |  |  |  |  |
| CC(=O)O [acetate] |  |  |  |  |  |  |  | increased | maintained almost constant | migrated into the cells | increased | not increased | increased | increased | increased in proportion to the acetate treatment concentration | increased | increased in proportion to the acetate treatment concentration | decreased as the treatment concentration increased |
